Assay results from PubChem BioAssay AID1259407 (Chemical Carcinogenesis Research Information System (CCRIS), 2018).
The source made the active and inactive calls. No rule for the calls is given here.

Tested on: CCRIS mutagenicity, Ames/micronucleus/aberration tests
Assay: CCRIS mutagenicity studies
Settings: Method: PREINCUBATION

Measured: mutagenic call

O=c1n(Cl)c(=O)n(Cl)c(=O)n1Cl
inactive: Test System: AMES SALMONELLA TYPHIMURIUM, Strain/Indicator: TA98, Metabolic Activation: NONE inactive; negative | Test System: AMES SALMONELLA TYPHIMURIUM, Strain/Indicator: TA98, Metabolic Activation: RAT LIVER S-9, PHENOBARBITAL AND BETA-NAPHTHOFLAVONE inactive; negative | Test System: AMES SALMONELLA TYPHIMURIUM, Strain/Indicator: TA98, Metabolic Activation: RAT, LIVER, S-9, KC 500 inactive; negative | Test System: AMES SALMONELLA TYPHIMURIUM, Strain/Indicator: TA100, Metabolic Activation: NONE inactive; negative | Test System: AMES SALMONELLA TYPHIMURIUM, Strain/Indicator: TA100, Metabolic Activation: RAT LIVER S-9, PHENOBARBITAL AND BETA-NAPHTHOFLAVONE inactive; negative | Test System: AMES SALMONELLA TYPHIMURIUM, Strain/Indicator: TA100, Metabolic Activation: RAT, LIVER, S-9, KC 500 inactive; negative | Test System: AMES SALMONELLA TYPHIMURIUM, Strain/Indicator: TA1535, Metabolic Activation: NONE inactive; negative | Test System: AMES SALMONELLA TYPHIMURIUM, Strain/Indicator: TA1535, Metabolic Activation: RAT LIVER S-9, PHENOBARBITAL AND BETA-NAPHTHOFLAVONE inactive; negative | Test System: AMES SALMONELLA TYPHIMURIUM, Strain/Indicator: TA1535, Metabolic Activation: RAT, LIVER, S-9, KC 500 inactive; negative | Test System: AMES SALMONELLA TYPHIMURIUM, Strain/Indicator: TA1537, Metabolic Activation: NONE inactive; negative | Test System: AMES SALMONELLA TYPHIMURIUM, Strain/Indicator: TA1537, Metabolic Activation: RAT LIVER S-9, PHENOBARBITAL AND BETA-NAPHTHOFLAVONE inactive; negative | Test System: AMES SALMONELLA TYPHIMURIUM, Strain/Indicator: TA1537, Metabolic Activation: RAT, LIVER, S-9, KC 500 inactive; negative | Test System: AMES SALMONELLA TYPHIMURIUM, Strain/Indicator: TA1538, Metabolic Activation: NONE inactive; negative | Test System: AMES SALMONELLA TYPHIMURIUM, Strain/Indicator: TA1538, Metabolic Activation: RAT LIVER S-9, PHENOBARBITAL AND BETA-NAPHTHOFLAVONE inactive; negative | Test System: AMES SALMONELLA TYPHIMURIUM, Strain/Indicator: TA1538, Metabolic Activation: RAT, LIVER, S-9, KC 500 inactive; negative | Test System: E. COLI, Strain/Indicator: WP2 UVRA, Metabolic Activation: NONE inactive; negative | Test System: E. COLI, Strain/Indicator: WP2UVRA, Metabolic Activation: NONE inactive; negative | Test System: E. COLI, Strain/Indicator: WP2UVRA, Metabolic Activation: RAT LIVER S-9, PHENOBARBITAL AND BETA-NAPHTHOFLAVONE inactive; negative | Test System: E. COLI, Strain/Indicator: WP2 UVRA, Metabolic Activation: RAT, LIVER, S-9, KC 500 inactive; negative
